Experimental data published in patent US20240228448A1 (Washington University, priority 2021, published 2024).
Several values for one entry are separate records, joined by “and”; a condition that tells them apart may be missing. Identical values can stand only once.

Tests used:
[1] = Log D7.4 measurement (1-octanol/PBS buffer); format: physicochemical; settings: pH 7.4, n=3
Experimental: Partition coefficient was measured by mixing the [^18F]FS1P1 sample with 3 mL each of 1-octanol and buffer that is 0.1 M phosphate and pH equals 7.4 in a test tube. The mixture in the test tube was vortexed for 20 sec followed by centrifugation for 1 min at room temperature. Then 2 mL of the organic layer was transferred to a second test tube, and 1 mL of 1-octanol and 3 mL of PBS buffer were added. The resulting mixture was vortexed for 20 sec, followed by centrifugation for 1 min at room temperature. Then 1 mL of the organic and aqueous layer were taken separately for measurement. The radioactivity content values (count per minute) of two samples (1 mL each) from the 1-octanol and buffer layers were counted using a gamma counter. The partition coefficient Log D7.4 was determined by calculating as the decimal logarithm the ratio of cpm/mL between 1-octanol and PBS buffer. The measurements were repeated three times. The value of the partition coefficient is 2.62±0.31.

[2] = Ex vivo biodistribution study in Sprague Dawley rats; settings: SD rats
Experimental: To evaluate the kinetics and the tissue distribution of [^18F]FS1P1 in rodents, Sprague Dawley (SD) male rats (6-7 weeks old; 200-300 g) were used and euthanized at 5, 30, 60, and 120 min post-injection. The radioactivity uptake of each organ was calculated as percentage injected dose per gram (% ID/gram). As shown in FIG. 7A-FIG. 7B, the initial tracer uptake was high in most tissues at 5 min. The liver had the highest uptake (% ID/g) at 3.04±0.18, whereas the heart, lung, spleen, kidney, and small intestine had moderate to high uptake at 1.39±0.15, 1.44±0.13, 1.14±0.13, 1.76±0.15, and 1.00±0.21 respectively. The radioactivity was rapidly washed out from heart, lung, pancreas, spleen, kidney, and liver, at 30 min post injection with ID %/g values decreasing to 0.55±0.02, 0.84±0.05, 0.66±0.04, 0.54±0.03, 1.13±0.66, and 2.51±0.10 respectively as shown in FIG. 7A.
A dose of [^18F]FS1P1 (˜3.7 MBq/100 μL) was injected via the tail vein into SD rats (male; 6-7 weeks old; 200-300 g). Rats were euthanized under anesthesia at 5, 30, 60, and 120 min post-injection (n=4 per group). Tissues of interest including blood, heart, lung, muscle, fat, pancreas, spleen, kidney, liver, brain, bone, thymus, small intestine, and large intestine were collected, weighed, and counted on an automated Beckman Gamma counter (Beckman, Brea, CA). To evaluate the uptake of [^18F]FS1P1 within the brain, brain dissection was performed and different brain regions including brain stem, cerebellum, cortex, striatum, thalamus, and hippocampus were collected and evaluated. The uptake of each organ was calculated and expressed as a percentage of the injection dose per gram of wet tissue (% ID per gram).

S1P1 = target: T1, S1P1 (Rattus norvegicus, UniProt P48303); assay: In vitro autoradiography of rat spinal cord and brain sections with CS1P1 blocking; format: binding; settings: blocked by CS1P1 (5 μM), in words
T1 construct: conducted on rat spinal cord and brain section incubated with [^18F]FS1P1; from tissue; host or cells: rat brain (cortex, hippocampus) and spinal cord sections
T1 sequence (P48303 whole entry): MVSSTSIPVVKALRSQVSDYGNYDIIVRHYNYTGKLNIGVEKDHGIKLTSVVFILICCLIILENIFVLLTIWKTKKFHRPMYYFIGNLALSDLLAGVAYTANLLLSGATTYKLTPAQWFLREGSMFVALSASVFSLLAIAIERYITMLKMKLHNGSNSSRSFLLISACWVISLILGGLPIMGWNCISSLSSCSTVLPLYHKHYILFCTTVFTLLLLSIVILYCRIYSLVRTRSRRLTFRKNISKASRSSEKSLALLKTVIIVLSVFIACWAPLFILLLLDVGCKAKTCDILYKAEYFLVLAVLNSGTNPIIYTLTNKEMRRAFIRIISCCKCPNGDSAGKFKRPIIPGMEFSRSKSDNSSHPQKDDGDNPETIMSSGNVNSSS

[3] = MicroPET brain study in cynomolgus macaque; settings: macaque brain
Experimental: Using a Focus 220 microPET scanner to collect dynamic scans for 2 hours after intravenous injection of ˜0.35 GBq dose into male macaques. Radiometabolites were measured from arterial blood samples collected at 5, 15, 30, and 60 min post-injection of radiotracer. The HPLC eluent was collected, and fractions were counted in a gamma counter.
Male macaques (˜10 kg) were used for PET imaging data acquisition with a microPET Focus 220 scanner (Siemens Inc., Knoxville, TN). Animals were anesthetized using ketamine and glycopyrrolate and maintained with inhalation of isoflurane. Core temperature was kept at 37° C. with a heated water blanket. The head was secured in a customized head holder. […] Emission data were corrected for dead time, scatter, and attenuation and then reconstructed. […] Predefined brain regions of interest from the template were applied to the co-registered PET image to obtain regional time-activity curves. The measurement of the brain uptake of radiotracer was standardized to body weight and the dose of radioactivity injected to yield a standardized uptake value (SUV).
The brain uptakes of these tracers were measured by Focus 220 microPET scanner to collect dynamic scans for 2 hours after intravenous injection of ˜0.35 GBq dose into male cynomolgus macaques (8-9 kg).

Cc1ccccc1-c1ccc(-c2nc(-c3ccc(CN(C)CCC(=O)O)c([18F])c3)no2)cc1C(F)(F)F [[^18F]FS1P1]
Log D7.4 [1]: 2.62±0.31
logD [1]: 2.62 ± 0.31
Tissue uptake (% ID/g) ([2]; Blood, 5 min post-injection): 0.16 ± 0.09 % ID/g
Tissue uptake (% ID/g) ([2]; Blood, 30 min post-injection): 0.13 ± 0.01 % ID/g
Tissue uptake (% ID/g) ([2]; Blood, 60 min post-injection): 0.13 ± 0.01 % ID/g
Tissue uptake (% ID/g) ([2]; Blood, 120 min post-injection): 0.10 ± 0.01 % ID/g
Tissue uptake (% ID/g) ([2]; Bone, 5 min post-injection): 0.20 ± 0.13 % ID/g
Tissue uptake (% ID/g) ([2]; Bone, 30 min post-injection): 0.16 ± 0.01 % ID/g
Tissue uptake (% ID/g) ([2]; Bone, 60 min post-injection): 0.15 ± 0.02 % ID/g
Tissue uptake (% ID/g) ([2]; Bone, 120 min post-injection): 0.11±0.02 % ID/g
Tissue uptake (% ID/g) ([2]; Brain stem, 5 min post-injection): 0.48 ± 0.14 % ID/g
Tissue uptake (% ID/g) ([2]; Brain stem, 30 min post-injection): 0.52 ± 0.03 % ID/g
Tissue uptake (% ID/g) ([2]; Brain stem, 60 min post-injection): 0.68 ± 0.07 % ID/g
Tissue uptake (% ID/g) ([2]; Brain stem, 120 min post-injection): 0.71 ± 0.11 % ID/g
Tissue uptake (% ID/g) ([2]; Cerebellum, 5 min post-injection): 0.42 ± 0.28 % ID/g
Tissue uptake (% ID/g) ([2]; Cerebellum, 30 min post-injection): 0.52 ± 0.05 % ID/g
Tissue uptake (% ID/g) ([2]; Cerebellum, 60 min post-injection): 0.66 ± 0.07 % ID/g
Tissue uptake (% ID/g) ([2]; Cerebellum, 120 min post-injection): 0.77 ± 0.12 % ID/g
Tissue uptake (% ID/g) ([2]; Cortex, 5 min post-injection): 0.35 ± 0.25 % ID/g
Tissue uptake (% ID/g) ([2]; Cortex, 30 min post-injection): 0.51 ± 0.07 % ID/g
Tissue uptake (% ID/g) ([2]; Cortex, 60 min post-injection): 0.59 ± 0.13 % ID/g
Tissue uptake (% ID/g) ([2]; Cortex, 120 min post-injection): 0.67 ± 0.10 % ID/g
Tissue uptake (% ID/g) ([2]; Fat, 5 min post-injection): 0.05 ± 0.03 % ID/g
Tissue uptake (% ID/g) ([2]; Fat, 30 min post-injection): 0.16 ± 0.02 % ID/g
Tissue uptake (% ID/g) ([2]; Fat, 60 min post-injection): 0.15 ± 0.02 % ID/g
Tissue uptake (% ID/g) ([2]; Fat, 120 min post-injection): 0.14 ± 0.02 % ID/g
Tissue uptake (% ID/g) ([2]; Heart, 5 min post-injection): 1.02 ± 0.69 % ID/g
Tissue uptake (% ID/g) ([2]; Heart, 30 min post-injection): 0.55±0.02 % ID/g and 0.54 ± 0.03 % ID/g
Tissue uptake (% ID/g) ([2]; Heart, 60 min post-injection): 0.49 ± 0.02 % ID/g
Tissue uptake (% ID/g) ([2]; Heart, 120 min post-injection): 0.39 ± 0.07 % ID/g
Tissue uptake (% ID/g) ([2]; Hippocampus, 5 min post-injection): 0.32 ± 0.21 % ID/g
Tissue uptake (% ID/g) ([2]; Hippocampus, 30 min post-injection): 0.41 ± 0.03 % ID/g
Tissue uptake (% ID/g) ([2]; Hippocampus, 60 min post-injection): 0.54 ± 0.03 % ID/g
Tissue uptake (% ID/g) ([2]; Hippocampus, 120 min post-injection): 0.42 ± 0.28 % ID/g
Tissue uptake (% ID/g) ([2]; Kidney, 5 min post-injection): 1.33 ± 0.87 % ID/g
Tissue uptake (% ID/g) ([2]; Kidney, 30 min post-injection): 1.13±0.66 % ID/g and 1.13 ± 0.13 % ID/g
Tissue uptake (% ID/g) ([2]; Kidney, 60 min post-injection): 1.10 ± 0.08 % ID/g
Tissue uptake (% ID/g) ([2]; Kidney, 120 min post-injection): 1.02 ± 0.17 % ID/g
Tissue uptake (% ID/g) ([2]; Liver, 5 min post-injection): 2.30 ± 1.50 % ID/g
Tissue uptake (% ID/g) ([2]; Liver, 30 min post-injection): 2.51±0.10 % ID/g and 2.51 ± 0.20 % ID/g
Tissue uptake (% ID/g) ([2]; Liver, 60 min post-injection): 2.32 ± 0.10 % ID/g
Tissue uptake (% ID/g) ([2]; Liver, 120 min post-injection): 2.08 ± 0.47 % ID/g
Tissue uptake (% ID/g) ([2]; Lung, 5 min post-injection): 1.08 ± 0.74 % ID/g
Tissue uptake (% ID/g) ([2]; Lung, 30 min post-injection): 0.84±0.05 % ID/g and 0.84 ± 0.09 % ID/g
Tissue uptake (% ID/g) ([2]; Lung, 60 min post-injection): 0.68 ± 0.04 % ID/g
Tissue uptake (% ID/g) ([2]; Lung, 120 min post-injection): 0.43 ± 0.30 % ID/g
Tissue uptake (% ID/g) ([2]; Muscle, 5 min post-injection): 0.11 ± 0.07 % ID/g
Tissue uptake (% ID/g) ([2]; Muscle, 30 min post-injection): 0.19 ± 0.01 % ID/g
Tissue uptake (% ID/g) ([2]; Muscle, 60 min post-injection): 0.18 ± 0.05 % ID/g
Tissue uptake (% ID/g) ([2]; Muscle, 120 min post-injection): 0.15 ± 0.02 % ID/g
Tissue uptake (% ID/g) ([2]; Pancreas, 5 min post-injection): 0.72 ± 0.47 % ID/g
Tissue uptake (% ID/g) ([2]; Pancreas, 30 min post-injection): 0.66±0.04 % ID/g and 0.66 ± 0.08 % ID/g
Tissue uptake (% ID/g) ([2]; Pancreas, 60 min post-injection): 0.52 ± 0.05 % ID/g
Tissue uptake (% ID/g) ([2]; Pancreas, 120 min post-injection): 0.43 ± 0.06 % ID/g
in vivo defluorination (bone uptake 5 to 120 min) ([2]; in words): no defluorination
Tissue uptake (% ID/g) ([2]; Small intestine, 5 min post-injection): 0.75 ± 0.57 % ID/g
Tissue uptake (% ID/g) ([2]; Small intestine, 30 min post-injection): 1.40 ± 0.36 % ID/g
Tissue uptake (% ID/g) ([2]; Small intestine, 60 min post-injection): 1.42 ± 0.36 % ID/g
Tissue uptake (% ID/g) ([2]; Small intestine, 120 min post-injection): 0.87 ± 0.21 % ID/g
Tissue uptake (% ID/g) ([2]; Spleen, 5 min post-injection): 0.86 ± 0.58 % ID/g
Tissue uptake (% ID/g) ([2]; Spleen, 30 min post-injection): 0.54±0.03 % ID/g and 0.54 ± 0.06 % ID/g
Tissue uptake (% ID/g) ([2]; Spleen, 60 min post-injection): 0.47 ± 0.05 % ID/g
Tissue uptake (% ID/g) ([2]; Spleen, 120 min post-injection): 0.37 ± 0.05 % ID/g
Tissue uptake (% ID/g) ([2]; Striatum, 5 min post-injection): 0.32 ± 0.21 % ID/g
Tissue uptake (% ID/g) ([2]; Striatum, 30 min post-injection): 0.46 ± 0.05 % ID/g
Tissue uptake (% ID/g) ([2]; Striatum, 60 min post-injection): 0.43 ± 0.29 % ID/g
Tissue uptake (% ID/g) ([2]; Striatum, 120 min post-injection): 0.67 ± 0.07 % ID/g
Tissue uptake (% ID/g) ([2]; Thymus, 5 min post-injection): 0.23 ± 0.16 % ID/g
Tissue uptake (% ID/g) ([2]; Thymus, 30 min post-injection): 0.30 ± 0.03 % ID/g
Tissue uptake (% ID/g) ([2]; Thymus, 60 min post-injection): 0.30 ± 0.04 % ID/g
Tissue uptake (% ID/g) ([2]; Thymus, 120 min post-injection): 0.31 ± 0.05 % ID/g
rat brain uptake ([2]; 5 min post-injection): 0.48±0.06 ID %/g
rat brain uptake ([2]; 30 min post-injection): 0.48±0.02 ID %/g
rat brain uptake ([2]; 60 min post-injection): 0.60±0.04 ID %/g
rat brain uptake ([2]; 120 min post-injection): 0.65±0.03 ID %/g
Tissue uptake (% ID/g) ([2]; thalamus, 5 min post-injection): 0.42 ± 0.31 % ID/g
Tissue uptake (% ID/g) ([2]; thalamus, 30 min post-injection): 0.53 ± 0.03 % ID/g
Tissue uptake (% ID/g) ([2]; thalamus, 60 min post-injection): 0.64 ± 0.06 % ID/g
Tissue uptake (% ID/g) ([2]; thalamus, 120 min post-injection): 0.70 ± 0.15 % ID/g
Tissue uptake (% ID/g) ([2]; total brain, 5 min post-injection): 2.65 ± 1.63 % ID/g
Tissue uptake (% ID/g) ([2]; total brain, 30 min post-injection): 3.41 ± 0.29 % ID/g
Tissue uptake (% ID/g) ([2]; total brain, 60 min post-injection): 4.12 ± 0.70 % ID/g
Tissue uptake (% ID/g) ([2]; total brain, 120 min post-injection): 4.58 ± 0.92 % ID/g
autoradiography signal and blocking (S1P1): strong signal, which was blocked
brain uptake, standard uptake value (SUV) ([3]; 120 min post-injection): ~2.3
brain uptake, maximum SUV value ([3]; from 20 to 120 min post-injection): ~2.3
